# Assay results taken from PubChem BioAssay AID328 (DTP/NCI, 2004).
# Values joined by “and” are separate entries in the source; they are usually repeats but may differ in a detail not shown here. Identical values can stand only once. Inconclusive results and toxic doses are left out.
# System: BDF1 mice, P388 leukemia ip, median survival T/C
# Assay: NCI In Vivo Anticancer Drug Screen. Data for tumor model P388 Leukemia (intraperitoneal) in B6D2F1 (BDF1) mice
# Settings: endpoint: median survival time, higher = longer survival
# Procedure, shortened: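 Steps: implant the tumour, treat one group with compound and another with vehicle, record survival, then divide treated by control.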
# [1] = dose: 100.0 mg/kg/injection, schedule: Q04DX003 (ip), vehicle: Klucel (hydroxypropylcellulose) (HPC)
# [2] = dose: 200.0 mg/kg/injection, schedule: Q04DX003 (ip), vehicle: Klucel (hydroxypropylcellulose) (HPC)
# [3] = dose: 400.0 mg/kg/injection, schedule: Q04DX003 (ip), vehicle: Klucel (hydroxypropylcellulose) (HPC)
# [4] = dose: 12.5 mg/kg/injection, schedule: Q01DX009 (ip), vehicle: Klucel (hydroxypropylcellulose) (HPC)
# [5] = dose: 25.0 mg/kg/injection, schedule: Q01DX009 (ip), vehicle: Klucel (hydroxypropylcellulose) (HPC)
# [6] = dose: 100.0 mg/kg/injection, schedule: Q01DX009 (ip), vehicle: saline with Tween-80
# [7] = dose: 200.0 mg/kg/injection, schedule: Q01DX009 (ip), vehicle: saline with Tween-80
# [8] = dose: 400.0 mg/kg/injection, schedule: Q01DX009 (ip), vehicle: saline with Tween-80
# [9] = dose: 6.25 mg/kg/injection, schedule: Q01DX009 (ip), vehicle: Klucel (hydroxypropylcellulose) (HPC)
# [10] = dose: 100.0 mg/kg/injection, schedule: Q04DX003 (ip), vehicle: saline with Tween-80
# [11] = dose: 200.0 mg/kg/injection, schedule: Q04DX003 (ip), vehicle: saline with Tween-80
# [12] = dose: 400.0 mg/kg/injection, schedule: Q04DX003 (ip), vehicle: saline with Tween-80
# [13] = dose: 50.0 mg/kg/injection, schedule: Q01DX009 (ip), vehicle: saline with Tween-80
compound,measurement,setting,value
NC(=O)c1ccc[n+](Cc2c(Cl)cccc2Cl)c1,T/C,"dose: 0.29 mg/kg/injection, schedule: Q01DX009 (ip), vehicle: saline",105 % of control
same,T/C,"dose: 0.44 mg/kg/injection, schedule: Q01DX009 (ip), vehicle: saline",115 % of control
same,T/C,"dose: 1.2 mg/kg/injection, schedule: Q04DX003 (ip), vehicle: saline",122 % of control
same,T/C,"dose: 1.25 mg/kg/injection, schedule: Q01DX009 (ip), vehicle: saline",96 % of control
same,T/C,"dose: 1.56 mg/kg/injection, schedule: Q01DX009 (ip), vehicle: saline",160 % of control
same,T/C,"dose: 2.5 mg/kg/injection, schedule: Q01DX009 (ip), vehicle: saline",96 % of control
same,T/C,"dose: 3.12 mg/kg/injection, schedule: Q01DX009 (ip), vehicle: saline",185 % of control
same,T/C,"dose: 4.12 mg/kg/injection, schedule: Q01DX009 (ip), vehicle: saline",168 % of control
same,T/C,"dose: 5.0 mg/kg/injection, schedule: Q01DX009 (ip), vehicle: saline",96 % of control
same,T/C,"dose: 6.25 mg/kg/injection, schedule: Q01DX009 (ip), vehicle: saline",154 % of control and 191 % of control and 200 % of control
same,T/C,"dose: 8.9 mg/kg/injection, schedule: Q04DX003 (ip), vehicle: saline",163 % of control
same,T/C,"dose: 10.0 mg/kg/injection, schedule: Q01DX009 (ip), vehicle: saline",94 % of control
same,T/C,"dose: 13.5 mg/kg/injection, schedule: Q04DX003 (ip), vehicle: saline",154 % of control and 158 % of control
same,T/C,"dose: 20.0 mg/kg/injection, schedule: Q01DX009 (ip), vehicle: saline",109 % of control
CN(C)C(=O)C(=O)C1C=Cc2ccccc21 (centres undefined),T/C,"dose: 100.0 mg/kg/injection, schedule: Q01DX001 (ip), vehicle: Klucel (hydroxypropylcellulose) (HPC)",100 % of control
same,T/C,[1],100 % of control
same,T/C,"dose: 200.0 mg/kg/injection, schedule: Q01DX001 (ip), vehicle: Klucel (hydroxypropylcellulose) (HPC)",95 % of control
same,T/C,[2],104 % of control
same,T/C,"dose: 400.0 mg/kg/injection, schedule: Q01DX001 (ip), vehicle: Klucel (hydroxypropylcellulose) (HPC)",90 % of control
same,T/C,[3],104 % of control
CC(=O)Nc1c(Cl)c(Cl)c2c(c1Cl)Cc1cc(Br)ccc1-2,T/C,"dose: 8.25 mg/kg/injection, schedule: Q01DX009 (ip), vehicle: Klucel (hydroxypropylcellulose) (HPC)",100 % of control and 113 % of control
same,T/C,[4],100 % of control and 118 % of control
same,T/C,"dose: 18.75 mg/kg/injection, schedule: Q01DX009 (ip), vehicle: Klucel (hydroxypropylcellulose) (HPC)",100 % of control and 109 % of control
same,T/C,[5],110 % of control
same,T/C,"dose: 25.0 mg/kg/injection, schedule: Q01DX009 (ip), vehicle: saline",90 % of control
same,T/C,"dose: 50.0 mg/kg/injection, schedule: Q01DX009 (ip), vehicle: saline",95 % of control
CCCCOCN(COCCCC)C(C)(C)C,T/C,"dose: 100.0 mg/kg/injection, schedule: Q01DX001 (ip), vehicle: saline",120 % of control
same,T/C,"dose: 200.0 mg/kg/injection, schedule: Q01DX001 (ip), vehicle: saline",110 % of control
COC(=O)C12OCC34C(CC5C(C)=C(O)C(=O)CC5(C)C3C(O)C1O)OC(=O)C(OC(=O)/C=C(\C)C(C)(C)O)C24 (centres undefined),T/C,"dose: 0.2 mg/kg/injection, schedule: Q01DX009 (ip), vehicle: saline",165 % of control
same,T/C,"dose: 0.4 mg/kg/injection, schedule: Q01DX009 (ip), vehicle: saline",165 % of control
same,T/C,"dose: 0.8 mg/kg/injection, schedule: Q01DX009 (ip), vehicle: saline",163 % of control
same,T/C,"dose: 60.0 micrograms/kg/injection, schedule: Q01DX009 (ip), vehicle: saline + alcohol",183 % of control
same,T/C,"dose: 120.0 micrograms/kg/injection, schedule: Q01DX009 (ip), vehicle: saline + alcohol",183 % of control
same,T/C,"dose: 250.0 micrograms/kg/injection, schedule: Q01DX009 (ip), vehicle: saline + alcohol",200 % of control
same,T/C,"dose: 500.0 micrograms/kg/injection, schedule: Q01DX009 (ip), vehicle: saline + alcohol",211 % of control
same,T/C,"dose: 1000.0 micrograms/kg/injection, schedule: Q01DX009 (ip), vehicle: saline + alcohol",238 % of control
same,T/C,"dose: 2000.0 micrograms/kg/injection, schedule: Q01DX009 (ip), vehicle: saline + alcohol",194 % of control
C=CCn1c(=S)[nH]c2ccccc2c1=O,T/C,[6],100 % of control
same,T/C,[7],95 % of control
same,T/C,[8],100 % of control
CCN1CCCC(Nc2cc(C)nc(Nc3nc4cc(Cl)c(Cl)cc4[nH]3)n2)C1 (centres undefined),T/C,"dose: 1.56 mg/kg/injection, schedule: Q01DX009 (ip), vehicle: Klucel (hydroxypropylcellulose) (HPC)",100 % of control
same,T/C,"dose: 3.12 mg/kg/injection, schedule: Q01DX009 (ip), vehicle: Klucel (hydroxypropylcellulose) (HPC)",90 % of control
same,T/C,[9],100 % of control
CCOc1c(Br)cc(Br)cc1C=O,T/C,[6],104 % of control
same,T/C,[10],109 % of control
same,T/C,[7],113 % of control
same,T/C,[11],109 % of control
same,T/C,[8],100 % of control
same,T/C,[12],95 % of control
C=C(C)C(=O)O[C@@H]1C[C@@]2(C)O[C@@H]2C[C@H](O)/C(C)=C/[C@H]2OC(=O)C(=C)[C@@H]21,T/C,"dose: 6.0 mg/kg/injection, schedule: Q01DX009 (ip), vehicle: saline + alcohol",113 % of control
same,T/C,"dose: 12.0 mg/kg/injection, schedule: Q01DX009 (ip), vehicle: saline + alcohol",109 % of control
same,T/C,"dose: 48.0 mg/kg/injection, schedule: Q01DX009 (ip), vehicle: saline + alcohol",113 % of control
CCCCC(=O)c1cc(OC)cc(OC)c1,T/C,"dose: 200.0 mg/kg/injection, schedule: Q01DX009 (ip), vehicle: Klucel (hydroxypropylcellulose) (HPC)",100 % of control
same,T/C,"dose: 400.0 mg/kg/injection, schedule: Q01DX009 (ip), vehicle: Klucel (hydroxypropylcellulose) (HPC)",91 % of control
O=[N+]([O-])c1ccccc1S(=O)(=O)Oc1ccccc1,T/C,[1],100 % of control
same,T/C,[2],100 % of control
same,T/C,[3],100 % of control
COc1cc2c(cc1O)C(=O)CCC(C(=O)O)=C2,T/C,"dose: 25.0 mg/kg/injection, schedule: Q01DX009 (ip), vehicle: saline with Tween-80",106 % of control
same,T/C,[13],111 % of control
same,T/C,[6],101 % of control
CS(=O)(=O)OCCN(Cc1ccc(OS(C)(=O)=O)cc1)S(C)(=O)=O,T/C,[13],102 % of control
same,T/C,[6],103 % of control
same,T/C,[10],107 % of control
same,T/C,[7],110 % of control
same,T/C,[11],109 % of control
same,T/C,[8],94 % of control
same,T/C,[12],111 % of control
CC(=O)OCC(OC(C)=O)C(OC(C)=O)C(OC(C)=O)C(/C=N/NC(N)=S)=N/NC(N)=S (centres undefined),T/C,"dose: 50.0 mg/kg/injection, schedule: Q01DX009 (ip), vehicle: other",90 % of control
same,T/C,"dose: 100.0 mg/kg/injection, schedule: Q01DX009 (ip), vehicle: other",100 % of control
same,T/C,"dose: 100.0 mg/kg/injection, schedule: Q04DX003 (ip), vehicle: other",95 % of control
same,T/C,"dose: 200.0 mg/kg/injection, schedule: Q01DX009 (ip), vehicle: other",100 % of control
same,T/C,"dose: 200.0 mg/kg/injection, schedule: Q04DX003 (ip), vehicle: other",105 % of control
same,T/C,"dose: 400.0 mg/kg/injection, schedule: Q04DX003 (ip), vehicle: other",120 % of control
COC1c2cnc(C)n2C=CN1C(C)=O (centres undefined),T/C,"dose: 100.0 mg/kg/injection, schedule: Q04DX003 (ip), vehicle: saline",99 % of control
same,T/C,"dose: 200.0 mg/kg/injection, schedule: Q04DX003 (ip), vehicle: saline",104 % of control
same,T/C,"dose: 300.0 mg/kg/injection, schedule: Q04DX003 (ip), vehicle: saline",94 % of control
O=[N+]([O-])C1(Cl)CCCCC1,T/C,[9],112 % of control
same,T/C,[4],108 % of control
same,T/C,[5],102 % of control and 105 % of control
OC(c1cc(C(F)(F)F)nc2c(F)cccc12)C1CCCCN1 (centres undefined),T/C,"dose: 100.0 mg/kg/injection, schedule: Q01DX001 (ip), vehicle: saline with Tween-80",91 % of control
same,T/C,"dose: 200.0 mg/kg/injection, schedule: Q01DX001 (ip), vehicle: saline with Tween-80",95 % of control
same,T/C,"dose: 400.0 mg/kg/injection, schedule: Q01DX001 (ip), vehicle: saline with Tween-80",100 % of control
Cc1ccc(N2C(=O)CSC2=S)cc1,T/C,[13],105 % of control
same,T/C,[6],95 % of control
same,T/C,[7],95 % of control
COc1cc(Br)c(/C=C/[N+](=O)[O-])cc1OC,T/C,"dose: 12.5 mg/kg/injection, schedule: Q04DX003 (ip), vehicle: saline with Tween-80",105 % of control
same,T/C,"dose: 25.0 mg/kg/injection, schedule: Q04DX003 (ip), vehicle: saline with Tween-80",105 % of control and 107 % of control
same,T/C,"dose: 50.0 mg/kg/injection, schedule: Q04DX003 (ip), vehicle: saline with Tween-80",113 % of control
same,T/C,[10],123 % of control
